The SangsterLogP compilation

**Q.** With `COc1cccc(C=CC(=O)C2c3cccc(O)c3C(=O)c3c(O)cccc32)c1` as the compound, how does the logP read?
**A.** 4.68

**Q.** Which logP does the source give for `O=C1c2c(O)cccc2C(C(=O)CCc2ccc(OCc3ccccc3)cc2)c2cccc(O)c21` here?
**A.** 5.63

**Q.** With `O=C1c2c(O)cccc2C(=Cc2cc(O)c(O)c(O)c2)c2cccc(O)c21` as the compound, how does the logP read?
**A.** 3.32

**Q.** For `O=C1c2c(O)cccc2C(=Cc2ccc(O)cc2)c2cccc(O)c21`, which logP is on record?
**A.** 4.52

**Q.** Which logP does the source give for `COc1ccc(CC(=O)C2c3cccc(O)c3C(=O)c3c(O)cccc32)cc1` here?
**A.** 4.2

**Q.** With `COc1ccc(C=C2c3cccc(O)c3C(=O)c3c(O)cccc32)cc1` as the compound, how does the logP read?
**A.** 5.53

**Q.** Which logP does the source give for `O=C1c2c(O)cccc2C(C(=O)Cc2ccc(OCc3ccccc3)cc2)c2cccc(O)c21` here?
**A.** 5.01

**Q.** Which logP does the source give for `CC(C)(C)c1cc(CC(=O)C2c3cccc(O)c3C(=O)c3c(O)cccc32)cc(C(C)(C)C)c1O` here?
**A.** 5.33

**Q.** Which logP does the source give for `O=C1c2c(O)cccc2C(C(=O)CCc2ccc(O)cc2)c2cccc(O)c21` here?
**A.** 3.73

**Q.** Which logP does the source give for `COC(=O)c1ccc(C=C2c3cccc(O)c3C(=O)c3c(O)cccc32)cc1` here?
**A.** 5.35

**Q.** With `O=C1c2c(O)cccc2C(=CCCc2ccccc2)c2cccc(O)c21` as the compound, how does the logP read?
**A.** 5.67

**Q.** With `O=C1c2c(O)cccc2C(=Cc2ccc([N+](=O)[O-])cc2)c2cccc(O)c21` as the compound, how does the logP read?
**A.** 4.96

**Q.** Which logP does the source give for `O=C1c2c(O)cccc2C(C(=O)Cc2ccc(O)cc2)c2cccc(O)c21` here?
**A.** 3.38

**Q.** Which logP does the source give for `O=C1c2c(O)cccc2C(C(=O)CCc2ccccc2)c2cccc(O)c21` here?
**A.** 4.63

**Q.** For `O=C1c2c(O)cccc2C(C(=O)Cc2ccccc2)c2cccc(O)c21`, which logP is on record?
**A.** 4.24

**Q.** Which logP does the source give for `O=C1c2c(O)cccc2C(C(=O)CCCc2ccccc2)c2cccc(O)c21` here?
**A.** 4.74

**Q.** For `O=C1c2c(O)cccc2C(C(=O)/C=C/c2ccccc2)c2cccc(O)c21`, which logP is on record?
**A.** 4.6

**Q.** Which logP does the source give for `O=C1c2c(O)cccc2C(C(=O)Cc2cc(O)c(O)c(O)c2)c2cccc(O)c21` here?
**A.** 2.61

**Q.** Which logP does the source give for `O=C1c2c(O)cccc2C(C(=O)Cc2ccc(O)c(O)c2)c2cccc(O)c21` here?
**A.** 3

**Q.** Which logP does the source give for `COc1ccc(CCC(=O)C2c3cccc(O)c3C(=O)c3c(O)cccc32)cc1OC` here?
**A.** 4.21

**Q.** Which logP does the source give for `O=C1c2c(O)cccc2C(C(=O)/C=C/c2ccc([N+](=O)[O-])cc2)c2cccc(O)c21` here?
**A.** 4.23

**Q.** For `O=C1c2c(O)cccc2C(C(=O)Cc2ccc(OCc3ccccc3)c(OCc3ccccc3)c2)c2cccc(O)c21`, which logP is on record?
**A.** 5.43

**Q.** With `N#Cc1ccc(C=C2c3cccc(O)c3C(=O)c3c(O)cccc32)cc1` as the compound, how does the logP read?
**A.** 4.58

**Q.** For `O=C(O)c1ccc(C=C2c3cccc(O)c3C(=O)c3c(O)cccc32)cc1`, which logP is on record?
**A.** 4.4

**Q.** Which logP does the source give for `O=C1c2c(O)cccc2C(C(=O)Cc2ccc([N+](=O)[O-])cc2)c2cccc(O)c21` here?
**A.** 3.96

**Q.** Which logP does the source give for `O=C1c2c(O)cccc2C(C(=O)Cc2cc(OCc3ccccc3)c(OCc3ccccc3)c(OCc3ccccc3)c2)c2cccc(O)c21` here?
**A.** 6.11

**Q.** With `COc1ccc(CCC(=O)C2c3cccc(O)c3C(=O)c3c(O)cccc32)cc1` as the compound, how does the logP read?
**A.** 4.72

**Q.** Which logP does the source give for `Cc1ccc(C=C2c3cccc(O)c3C(=O)c3c(O)cccc32)cc1` here?
**A.** 5.83

**Q.** With `COc1ccc(C=C2c3cccc(O)c3C(=O)c3c(O)cccc32)cc1OC` as the compound, how does the logP read?
**A.** 5.05

**Q.** With `O=C1c2c(O)cccc2C(=Cc2ccc(C(F)(F)F)cc2)c2cccc(O)c21` as the compound, how does the logP read?
**A.** 5.48
